According to patent US6649780B1, “Cationic lipids” (Valentis, Inc., priority 1998, dated 2003):

Experiment: Liposome formation and sizing after extrusion
Assay type: physicochemical
Protocol: Two mice studies have been performed for the evaluation of cationic lipids of the present invention, in comparison with DOTIM. In brief, the lipid combinations were tested as carriers for gene transfer by intravenous delivery in ICR female mice (25 g), and expression was determined using the plasmid p4119 containing the CAT reporter gene under the control of the HCMV promoter. The lipids were dissolved in a mixture of chloroform and methanol (1.1). Lipid films of cationic and neutral lipid at a 1:1 molar ratio were formed with a rotary evaporator. The films were hydrated with 5% dextrose in water (D5W) at room temperature and extruded through a series of membranes having pore sizes of 400 nm, 200 nm, and 50 nm.
DNA-liposome complexes were prepared at a 1:10 DNA:cationic lipid ratio (mg DNA per μmole cationic lipid) by adding the DNA, in a solution at 0.625 mg/mL concentration in D5W to the solution of liposomes, in an equal volume, with constant stirring, using a Hamilton Dilutor 540B (Hamilton, Reno, Nev.). The lipids used were MBN 246, 247, 248, 249, 250, 251 and 252 (FIG. 10). MBN 249 was used in a 1:10 ratio with cholesterol. MBN 250 was used in a 1:10 ratio with DLPE. The DNA solution was 0.3125 mg/mL DNA in D5W. […] Zeta potential was determined by a Zeta Plus, Zeta Potential Analyzer (Brookhaven Instruments Corp.).

With “N,N-Dimethyl-N-(2,3-dihydroxypropanylo-N-(2,3-dioleyloxypropanyl)amonium Chloride [MBN305]” the liposome formation was “forms liposomes easily”.
